In patent US20250230155A1 (Vanderbilt University, priority 2021, published 2025):

Target: T1, human mAChR M4 (Homo sapiens, UniProt P08173)
T1 construct: expressed in transfected cells
T1 sequence (P08173 1-479): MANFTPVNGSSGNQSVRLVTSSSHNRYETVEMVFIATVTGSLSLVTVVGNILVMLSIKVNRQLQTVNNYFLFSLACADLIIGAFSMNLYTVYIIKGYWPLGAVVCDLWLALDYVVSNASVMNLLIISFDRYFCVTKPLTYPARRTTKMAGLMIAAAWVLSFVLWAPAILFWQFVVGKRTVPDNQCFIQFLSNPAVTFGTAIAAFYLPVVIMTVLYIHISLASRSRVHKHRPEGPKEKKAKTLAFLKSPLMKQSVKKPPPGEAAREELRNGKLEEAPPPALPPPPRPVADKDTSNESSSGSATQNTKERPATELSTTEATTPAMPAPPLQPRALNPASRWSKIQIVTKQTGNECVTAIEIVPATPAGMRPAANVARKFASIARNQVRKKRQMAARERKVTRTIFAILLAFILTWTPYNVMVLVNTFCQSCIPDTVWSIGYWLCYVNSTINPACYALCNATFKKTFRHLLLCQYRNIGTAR
Assay: mAChR M4 cell-based functional assay (calcium mobilization, CHO-K1 hM4-Gqi5 cells)
Conditions: for Emax at 30 µM: CHO-K1, % ACh maximum at 30 μM, human M4; for EC50: positive allosteric modulator activity, increase in the EC20 acetylcholine response, CHO-K1 hM4-Gqi5 cells, read-out: Human M4 EC50
Procedure, shortened: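 CHO-K1 cells stably expressing human M4 with chimeric Gqi5, loaded with Fluo-4 AM; compounds given as 11-point 1:3 curves and calcium flux read on FDSS at 1 Hz. Acetylcholine EC20 added at 144 s, EC80 at 230 s; agonist, PAM (EC20 potentiation) and antagonist (EC80 inhibition) EC50/Emax from four-parameter fits.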

[2H]C1([2H])Cc2ncc(Nc3cc(C)ncc3F)cc2C([2H])([2H])N1c1nnc(C#N)cc1C [Example 603, 6-(3-((5-fluoro-2-methylpyridin-4-yl)amino)-7,8-dihydro-1,6-naphthyridin-6(5H)-yl-5,5,7,7-d4)-5-methylpyridazine-3-carbonitrile]
Emax at 30 µM: 97% | EC50: 28 nM

[2H]C1([2H])Cc2ncc(Nc3cccnc3C)cc2C([2H])([2H])N1c1nnc(C#N)cc1C [Example 604, 5-methyl-6-(3-((2-methylpyridin-3-yl)amino)-7,8-dihydro-1,6-naphthyridin-6(5H)-yl-5,5,7,7-d4)pyridazine-3-carbonitrile]
Emax at 30 µM: 83% | EC50: 158 nM

Cc1ccc2c(n1)CCN(c1nnc(C#N)cc1C)C2 [Example 605, 5-methyl-6-(2-methyl-7,8-dihydro-1,6-naphthyridin-6(5H)-yl)pyridazine-3-carbonitrile]
Emax (CHO-K1): 106% | EC50: 1440 nM

[2H]C1([2H])Cc2ncc(Nc3ccncc3F)cc2C([2H])([2H])N1c1nnc(C#N)cc1C [Example 606, 6-(3-((3-fluoropyridin-4-yl)amino)-7,8-dihydro-1,6-naphthyridin-6(5H)-yl-5,5,7,7-d4)-5-methylpyridazine-3-carbonitrile]
Emax at 30 µM: 90% | EC50: 10 nM

[2H]C1([2H])Cc2ncc(Nc3ccncc3C)cc2C([2H])([2H])N1c1nnc(C#N)cc1C [Example 607, 5-methyl-6-(3-((3-methylpyridin-4-yl)amino)-7,8-dihydro-1,6-naphthyridin-6(5H)-yl-5,5,7,7-d4)pyridazine-3-carbonitrile]
Emax at 30 µM: 70% | EC50: 906 nM

[2H]C1([2H])Cc2ncc(Nc3ccncc3F)cc2C([2H])([2H])N1c1nnc(C#N)c(C)c1C [Example 608, 6-(3-((3-fluoropyridin-4-yl)amino)-7,8-dihydro-1,6-naphthyridin-6(5H)-yl-5,5,7,7-d4)-4,5-dimethylpyridazine-3-carbonitrile]
Emax at 30 µM: 83% | EC50: 4 nM

[2H]C1([2H])Cc2ncc(Nc3ccncc3C)cc2C([2H])([2H])N1c1nnc(C#N)c(C)c1C [Example 609, 4,5-dimethyl-6-(3-((3-methylpyridin-4-yl)amino)-7,8-dihydro-1,6-naphthyridin-6(5H)-yl-5,5,7,7-d4)pyridazine-3-carbonitrile]
Emax at 30 µM: 56% | EC50: 753 nM

[2H]C1([2H])Cc2ncc(Nc3ccncc3C)cc2C([2H])([2H])N1c1ncc(C#N)cc1C [Example 610, 5-methyl-6-(3-((3-methylpyridin-4-yl)amino)-7,8-dihydro-1,6-naphthyridin-6(5H)-yl-5,5,7,7-d4)nicotinonitrile]
Emax at 30 µM: 70% | EC50: 59 nM

[2H]C1([2H])Cc2ncc(Nc3ccccc3F)cc2C([2H])([2H])N1c1nnc(C#N)cc1C [Example 611, 6-(3-((2-fluorophenyl)amino)-7,8-dihydro-1,6-naphthyridin-6(5H)-yl-5,5,7,7-d4)-5-methylpyridazine-3-carbonitrile]
Emax at 30 µM: 86% | EC50: 8 nM

[2H]C1([2H])Cc2ncc(Nc3ccccc3F)cc2C([2H])([2H])N1c1ncc(C#N)cc1C [Example 612]
Emax at 30 µM: 91% | EC50: 24 nM

Cc1c(C#N)nnc(N2CCc3ncc(Nc4ccncc4F)cc3C2)c1C [Example 613, 6-(3-((3-fluoropyridin-4-yl)amino)-7,8-dihydro-1,6-naphthyridin-6(5H)-yl)-4,5-dimethylpyridazine-3-carbonitrile]
Emax at 30 µM: 97% | EC50: 3 nM

Cc1cc(Nc2cnc3c(c2)CN(c2nnc(C#N)c(C)c2C)CC3)c(F)cn1 [Example 614, 6-(3-((5-fluoro-2-methylpyridin-4-yl)amino)-7,8-dihydro-1,6-naphthyridin-6(5H)-yl)-4,5-dimethylpyridazine-3-carbonitrile]
Emax at 30 µM: 92% | EC50: 12 nM

Cc1cc(Nc2cnc3c(c2)CN(c2nnc(C#N)cc2C)CC3)c(F)cn1 [Example 615, 6-(3-((5-fluoro-2-methylpyridin-4-yl)amino)-7,8-dihydro-1,6-naphthyridin-6(5H)-yl)-5-methylpyridazine-3-carbonitrile]
Emax at 30 µM: 89% | EC50: 11 nM

Cc1cc(Nc2cnc3c(c2)CN(c2ncc(C#N)cc2C)CC3)c(F)cn1 [Example 616, 6-(3-((5-fluoro-2-methylpyridin-4-yl)amino)-7,8-dihydro-1,6-naphthyridin-6(5H)-yl)-5-methylnicotinonitrile]
Emax at 30 µM: 95% | EC50: 4 nM

[2H]C1([2H])Cc2ncc(-c3ccnn3C)cc2C([2H])([2H])N1c1nnc(C#N)cc1C [Example 617, 5-methyl-6-(3-(1-methyl-1H-pyrazol-5-yl)-7,8-dihydro-1,6-naphthyridin-6(5H)-yl-5,5,7,7-d4)pyridazine-3-carbonitrile]
Emax at 30 µM: 88% | EC50: 2460 nM

Cc1cnccc1Nc1cnc2c(c1)CN(c1nnc(C#N)c(C)c1C)CC2 [Example 618, 4,5-dimethyl-6-(3-((3-methylpyridin-4-yl)amino)-7,8-dihydro-1,6-naphthyridin-6(5)-yl)pyridazine-3-carbonitrile]
Emax at 30 µM: 74% | EC50: 391 nM

Cc1cnccc1Nc1cnc2c(c1)CN(c1nnc(C#N)cc1C)CC2 [Example 619, 5-methyl-6-(3-((3-methylpyridin-4-yl)amino)-7,8-dihydro-1,6-naphthyridin-6(5H)-yl)pyridazine-3-carbonitrile]
Emax at 30 µM: 86% | EC50: 1020 nM

Cc1cnccc1Nc1cnc2c(c1)CN(c1ncc(C#N)cc1C)CC2 [Example 620, 5-methyl-6-(3-((3-methylpyridin-4-yl)amino)-7,8-dihydro-1,6-naphthyridin-6(5H)-yl)nicotinonitrile]
Emax at 30 µM: 96% | EC50: 72 nM

[2H]C1([2H])Cc2ncc(-c3c(C)noc3C)cc2C([2H])([2H])N1c1nnc(C#N)cc1C [Example 621, 6-(3-(3,5-dimethylisoxazol-4-yl)-7,8-dihydro-1,6-naphthyridin-6(5H)-yl-5,5,7,7-d4)-5-methylpyridazine-3-carbonitrile]
Emax at 30 µM: 85% | EC50: 318 nM

Cc1c(C#N)nnc(N2CCc3ncc(Nc4ccccc4Cl)cc3C2)c1C [compound 39, 6-[3-(2-chloroanilino)-7,8-dihydro-5H-1,6-naphthyridin-6-yl]-4,5-dimethyl-pyridazine-3-carbonitrile]
Emax at 30 µM: 73% | EC50: 239 nM

Cc1c(C#N)nnc(N2CCc3ncc(Nc4ccccc4N(C)C)cc3C2)c1C [compound 40, 6-[3-[2-(dimethylamino)anilino]-7,8-dihydro-5H-1,6-naphthyridin-6-yl]-4,5-dimethyl-pyridazine-3-carbonitrile]
Emax at 30 µM: 51% | EC50: 910 nM

Cc1c(C#N)nnc(N2CCc3ncc(Nc4ccccc4C#N)cc3C2)c1C [compound 41, 6-[3-(2-cyanoanilino)-7,8-dihydro-5H-1,6-naphthyridin-6-yl]-4,5-dimethyl-pyridazine-3-carbonitrile]
Emax at 30 µM: 46% | EC50: 483 nM

Cc1ccccc1Nc1cnc2c(c1)CN(c1nnc(C#N)c(C)c1C)CC2 [compound 42, 4,5-dimethyl-6-[3-(2-methylanilino)-7,8-dihydro-5H-1,6-naphthyridin-6-yl]pyridazine-3-carbonitrile]
Emax at 30 µM: 80% | EC50: 483 nM
